Measured values from PMC10877568 (ACS Chemical Biology, 2024).

Key:
Assay type in all cases: binding
[1] = target: T1, Siglec-9 V-set domain (Siglec-9d1) (Homo sapiens, UniProt Q9Y336, C36S); test: Isothermal titration calorimetry
[2] = target: T1, Siglec-9 V-set domain (Siglec-9d1); test: 1H-15N HSQC NMR titration
mVENUS = test: STD-NMR control experiment with mVENUS

T1 sequence (Q9Y336 18-144 C36S): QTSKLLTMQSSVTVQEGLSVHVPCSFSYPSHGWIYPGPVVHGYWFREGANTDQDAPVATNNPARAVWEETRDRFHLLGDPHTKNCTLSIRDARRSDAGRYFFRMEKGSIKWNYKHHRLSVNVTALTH

Molecule	ΔH ([1]; ITC, Siglec-9d1)	fold higher affinity for Siglec-9 than the glycan with unsubstituted Neu5Ac ([1]; comparison with the unsubstituted glycan)	fold higher affinity toward Siglec-9 than BTCNeu5Ac ([1]; from ITC KD values)	Kd [2]	STD NMR signals on binding to mVENUS (mVENUS)
9N-[5-(2-methylthiazol-4-yl)thiophene sulfonamide]-Neu5Acα(2–6)Galβ(1–4)GlcNAc [^MTTSNeu5Ac]	-10.2 kcal/mol	> 20 fold	approximately 2 fold	–	–
CC(=O)N[C@H]1[C@H]([C@H](O)[C@H](O)CO)O[C@@](O[C@H]2[C@@H](O)[C@@H](CO)O[C@@H](O[C@@H]([C@H](O[C@@H]3O[C@@H](C)[C@@H](O)[C@@H](O)[C@@H]3O)[C@H](C=O)NC(C)=O)[C@H](O)CO)[C@@H]2O)(C(=O)O)C[C@@H]1O [sLeX, Neu5Ac(α2-3)Gal(β1-4)[Fuc(1-3)]GlcNAc]	–	–	–	499 ± 74 µM	did not produce any STD NMR signals
